# Source: US20120316200A1, “PYRIDONE DERIVATIVES” (Merck Sharp & Dohme Corp., priority 2010, published 2012)
# pIC50: −log10 of the molar value.
# Target: T1, human MCH-1R (Homo sapiens, UniProt Q99705)
# T1 construct: expressed in transfected cells; host or cells: CHO-K1 (American Type Culture Collection)
# Assay: MCH-1R binding inhibition ([125I]MCH binding to membranes of MCH-1R expression CHO-K1 cells)
# Conditions: 50 pM [125I]MCH, membranes of CHO-K1 cells expressing human MCH-1R, 25° C., one hour, pH 7.4; read-out: IC50 (50% inhibition concentration for specific [125I]MCH binding)
# Method: A cDNA sequence encoding human MCH-1R [FEBS Letters, Vol. 398, 253 (1996); Biochimica et Biophisica Acta, Vol. 1401, 216 (1998)] was cloned to a plasmid vector pEF/myc/cyto (manufactured by Invitrogen). The obtained expression vector was transfected to a host cell CHO-K1 (American Type Culture Collection) using Lipofectamine Plus reagent (manufactured by Life Technology) to provide MCH-1R expression cells.
# Membrane samples prepared from the MCH-1R expression cells were incubated with a test compound and 50 pM [^125I]MCH (manufactured by NEN) in an assay buffer (50 mM Tris buffer containing 10 mM magnesium chloride, 2 mM ethylenediamine tetraacetate, 0.01% bacitracin, and 0.2% bovine serum albumin; pH 7.4) at 25° C. for one hour, followed by filtration through a glass filter GF/C (manufactured by Wattman). The glass filter was washed with 50 mM Tris buffer (pH 7.4) containing 10 mM magnesium chloride, 2 mM ethylenediamine tetraacetate, and 0.04% Tween-20, and then the radioactivity on the glass filter was determined. Non-specific binding was measured in the presence of 1 μM human MCH, and, with respect to each test compound, 50% inhibition concentration (IC50 value) for specific [^125I]MCH binding was determined.
# T1 sequence (Q99705 whole entry): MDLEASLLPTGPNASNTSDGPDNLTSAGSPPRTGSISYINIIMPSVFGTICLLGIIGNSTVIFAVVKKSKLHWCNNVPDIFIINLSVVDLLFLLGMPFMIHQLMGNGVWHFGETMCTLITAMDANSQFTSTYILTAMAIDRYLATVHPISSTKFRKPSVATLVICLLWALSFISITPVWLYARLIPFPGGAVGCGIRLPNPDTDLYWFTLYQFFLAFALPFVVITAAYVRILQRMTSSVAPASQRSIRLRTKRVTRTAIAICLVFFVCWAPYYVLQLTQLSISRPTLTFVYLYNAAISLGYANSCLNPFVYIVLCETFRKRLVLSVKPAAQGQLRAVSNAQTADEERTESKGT
row,pIC50,Structure (SMILES)
1,7.21,"COC(=O)COc1ccc(-n2ccc(OCc3ccc(F)cc3)cc2=O)cc1OC [Example 20, methyl (4-{4-[(4-fluorobenzyl)oxy]-2-oxopyridin-1(2H)-yl}-2-methoxyphenoxy)acetate]"
2,7.48,"COc1cc(-n2ccc(OCc3ccc(Cl)cn3)cc2=O)ccc1OC[C@H](O)C1CC1 [Example 21, 4-[(5-chloropyridin-2-yl)methoxy]-1-{4-[(2R)-2-cyclopropyl-2-hydroxyethoxy]-3-methoxyphenyl}pyridin-2(1H)-one]"
3,7.00,O=c1cc(OCc2ccc(Cl)cn2)ccn1-c1ccc(OC[C@H](O)C2CC2)cc1 [Example 22]
4,7.44,"COc1cc(-n2ccc(OCc3ccc(Cl)cn3)cc2=O)ccc1OC[C@@H](O)C1CC1 [Example 24, 4-[(5-chloropyridin-2-yl)methoxy]-1-{4-[(2S)-2-cyclopropyl-2-hydroxyethoxy]-3-methoxyphenyl}pyridin-2(1H)-one]"
5,7.04,"O=c1cc(OCc2ccc(Cl)cn2)ccn1-c1ccc(OC[C@@H](O)C2CC2)cc1 [Example 26, 4-[(5-chloropyridin-2-yl)methoxy]-1-{4-[(2S)-2-cyclopropyl-2-hydroxyethoxy]phenyl}pyridin-2(1H)-one]"

# Further lines, the compound ahead of its results:
row,Structure (SMILES),pIC50
1,"Cc1cc(-n2ccc(OCc3ccc(F)cc3)cc2=O)ccc1OCC(C)(C)O [Example 2, 4-[(4-Fluorobenzyloxy)]-1-[4-(2-hydroxy-2-methylpropoxy)-3-methylphenyl]pyridin-2(1H)-one]",7.96
2,"Cc1cc(-n2ccc(OCc3ccc(F)cc3)cc2=O)ccc1OCC1(O)CC1 [Example 5, 4-[(4-Fluorobenzyl)oxy]-1-{4-[(1-hydroxycyclopropyl)methoxy]-3-methylphenyl}pyridin-2(1H)-one]",7.96
3,"CC(C)(CO)COc1ccc(-n2ccc(OCc3ccc(F)cc3)cc2=O)cc1 [Example 6, 4-[(4-Fluorobenzyl)oxy]-1-[4-(3-hydroxy-2,2-dimethylpropoxy)phenyl]pyridin-2(1H)-one]",7.20
4,"CC(C)(O)c1ccc2cc(-n3ccc(OCc4ccc(F)cc4)cc3=O)ccc2n1 [Example 7, 4-(4-Fluorobenzyloxy)-1-[2-(2-hydroxypropan-2-yl)quinolin-6-yl]pyridin-2-(1H)-one]",7.42
5,"COc1cc(-n2ccc(OCc3ccc(F)cc3)cc2=O)ccc1OCCC(C)(C)O [Example 8, 4-(4-Fluorobenzyloxy)-1-[4-(3-hydroxy-3-methylbutoxy)-3-methoxyphenyl]pyridin-2-(1H)-one]",7.08
6,"CC(C)(O)CCOc1ccc(-n2ccc(OCc3ccc(F)cc3)cc2=O)cc1 [Example 9, 4-[(4-Fluorobenzyl)oxy]-1-[4-(3-hydroxy-3-methylbutoxy)phenyl]pyridin-2 (1H)-one]",7.64
7,"CC(C)(O)COc1ccc(-n2ccc(OCc3ccc(F)cc3)cc2=O)cc1Cl [Example 10, 1-[3-chloro-4-(2-hydroxy-2-methylpropoxy)phenyl]-4-[(4-fluorobenzyl)oxy]pyridin-2(1H)-one]",7.96
8,"CC(C)(O)COc1ccc(-n2ccc(OCc3ccc(F)cc3)cc2=O)cc1F [Example 12, 4-[(4-fluorobenzyl)oxy]-1-[3-fluoro-4-(2-hydroxy-2-methylpropoxy)phenyl]pyridin-2(1H)-one]",7.01
9,"Cc1cc(-n2ccc(OCc3ccc(F)cc3)cc2=O)ccc1OCC(=O)OC(C)C [Example 18, propan-2-yl (4-{4-[(4-fluorobenzyl)oxy]-2-oxopyridin-1(2H)-yl}-2-methylphenoxy)acetate]",7.64
10,"COC(=O)COc1ccc(-n2ccc(OCc3ccc(F)cc3)cc2=O)cc1C [Example 19, methyl (4-{4-[(4-fluorobenzyl)oxy]-2-oxopyridin-1(2H)-yl}-2-methylphenoxy)acetate]",7.51
